According to the NIST ThermoML archive (doi:10.1021/je900600c):

Assays:
[1] = 101 kPa, Liquid; for electrical conductivity: Frequency=0.0005 MHz, crison conductivimeter
[2] = xn = mol fraction of the nth substance listed; conditions: 101 kPa, Liquid; for electrical conductivity: Frequency=0.0005 MHz, crison conductivimeter

O [water]
[1]
Conditions | viscosity [mPa·s]
288.15 K | 1.137
298.15 K | 0.89
308.15 K | 0.719
318.15 K | 0.597

CCCCCCn1cc[n+](C)c1.F[B-](F)(F)F [1-hexyl-3-methylimidazolium tetrafluoroborate] + O
[2]
Conditions | electrical conductivity [S/m] | viscosity [mPa·s]
288.15 K, x2 = 0 | – | 357.5
288.15 K, x2 = 0.1101 | – | 200.6
288.15 K, x2 = 0.1679 | – | 151
288.15 K, x2 = 0.2812 | – | 100.3
288.15 K, x2 = 0.3581 | – | 65.4
288.15 K, x2 = 0.4907 | 0.625 | –
288.15 K, x2 = 0.4987 | – | 38.7
288.15 K, x2 = 0.5075 | – | 36.4
288.15 K, x2 = 0.573 | – | 29.4
288.15 K, x2 = 0.72 | – | 17.55
298.15 K, x2 = 0 | 0.126 | 190.9
298.15 K, x2 = 0.1101 | – | 113.9
298.15 K, x2 = 0.1164 | 0.202 | –
298.15 K, x2 = 0.1679 | – | 89.1
298.15 K, x2 = 0.2364 | 0.337 | –
298.15 K, x2 = 0.2812 | – | 61.6
298.15 K, x2 = 0.3232 | 0.484 | –
298.15 K, x2 = 0.3581 | – | 41.6
298.15 K, x2 = 0.3942 | 0.627 | –
298.15 K, x2 = 0.4548 | 0.798 | –
298.15 K, x2 = 0.4907 | 0.983 | –
298.15 K, x2 = 0.4987 | – | 25.5
298.15 K, x2 = 0.5075 | – | 24
298.15 K, x2 = 0.5294 | 1.06 | –
298.15 K, x2 = 0.573 | – | 19.6
298.15 K, x2 = 0.5896 | 1.31 | –
298.15 K, x2 = 0.652 | 1.62 | –
298.15 K, x2 = 0.7184 | 1.99 | –
298.15 K, x2 = 0.72 | – | 10.82
308.15 K, x2 = 0 | – | 110.3
308.15 K, x2 = 0.1101 | – | 69.4
308.15 K, x2 = 0.1679 | – | 56.2
308.15 K, x2 = 0.2812 | – | 40.3
308.15 K, x2 = 0.3581 | – | 28.1
308.15 K, x2 = 0.4907 | 1.38 | –
308.15 K, x2 = 0.4987 | – | 17.72
308.15 K, x2 = 0.5075 | – | 16.76
308.15 K, x2 = 0.573 | – | 13.83
308.15 K, x2 = 0.72 | – | 7.76
318.15 K, x2 = 0 | – | 68.5
318.15 K, x2 = 0.1101 | – | 45.1
318.15 K, x2 = 0.1679 | – | 37.5
318.15 K, x2 = 0.2812 | – | 27.8
318.15 K, x2 = 0.3581 | – | 19.89
318.15 K, x2 = 0.4907 | 1.65 | –
318.15 K, x2 = 0.4987 | – | 12.92
318.15 K, x2 = 0.5075 | – | 12.25
318.15 K, x2 = 0.573 | – | 10.19
318.15 K, x2 = 0.72 | – | 5.85

CCCCn1cc[n+](C)c1.F[B-](F)(F)F [1-butyl-3-methylimidazolium tetrafluoroborate]
[1]
Conditions | electrical conductivity [S/m] | viscosity [mPa·s]
288.15 K | – | 173.5
298.15 K | 0.352 | 99.2
308.15 K | – | 61.3
318.15 K | – | 40.4

CCCCCCn1cc[n+](C)c1.F[B-](F)(F)F [1-hexyl-3-methylimidazolium tetrafluoroborate]
[1]
Conditions | electrical conductivity [S/m] | viscosity [mPa·s]
288.15 K | – | 357.5
298.15 K | 0.126 | 190.9
308.15 K | – | 110.3
318.15 K | – | 68.5

CCn1cc[n+](C)c1.F[B-](F)(F)F [1-ethyl-3-methylimidazolium tetrafluoroborate] + O
[2]
Conditions | electrical conductivity [S/m] | viscosity [mPa·s]
288.15 K, x2 = 0 | – | 55.5
288.15 K, x2 = 0.0985 | – | 36.2
288.15 K, x2 = 0.2191 | – | 23.88
288.15 K, x2 = 0.3053 | – | 18.26
288.15 K, x2 = 0.3982 | – | 13.26
288.15 K, x2 = 0.4916 | – | 10.29
288.15 K, x2 = 0.4933 | 4 | –
288.15 K, x2 = 0.5989 | – | 7.28
288.15 K, x2 = 0.6991 | – | 5.43
288.15 K, x2 = 0.8029 | – | 3.18
288.15 K, x2 = 0.8991 | – | 2.32
298.15 K, x2 = 0 | 1.63 | 36.9
298.15 K, x2 = 0.0985 | – | 25.2
298.15 K, x2 = 0.2191 | – | 16.66
298.15 K, x2 = 0.3053 | – | 13.51
298.15 K, x2 = 0.3665 | 4.1 | –
298.15 K, x2 = 0.3982 | – | 10.02
298.15 K, x2 = 0.4916 | – | 7.91
298.15 K, x2 = 0.4933 | 5.26 | –
298.15 K, x2 = 0.5498 | 6.07 | –
298.15 K, x2 = 0.5989 | – | 5.62
298.15 K, x2 = 0.6599 | 7.64 | –
298.15 K, x2 = 0.6991 | – | 4.23
298.15 K, x2 = 0.7332 | 8.15 | –
298.15 K, x2 = 0.7856 | 8.44 | –
298.15 K, x2 = 0.8029 | – | 2.5
298.15 K, x2 = 0.8249 | 8.52 | –
298.15 K, x2 = 0.8555 | 8.47 | –
298.15 K, x2 = 0.8799 | 8.36 | –
298.15 K, x2 = 0.8991 | – | 1.82
298.15 K, x2 = 0.8999 | 8.18 | –
298.15 K, x2 = 0.9166 | 7.9 | –
298.15 K, x2 = 0.9307 | 7.43 | –
298.15 K, x2 = 0.9428 | 7.1 | –
298.15 K, x2 = 0.9533 | 6.56 | –
298.15 K, x2 = 0.9625 | 6.13 | –
298.15 K, x2 = 0.9706 | 5.43 | –
298.15 K, x2 = 0.9778 | 4.76 | –
298.15 K, x2 = 0.9842 | 4.03 | –
298.15 K, x2 = 0.99 | 2.95 | –
298.15 K, x2 = 0.9952 | 1.79 | –
308.15 K, x2 = 0 | – | 26
308.15 K, x2 = 0.0985 | – | 18.45
308.15 K, x2 = 0.2191 | – | 12.64
308.15 K, x2 = 0.3053 | – | 10.39
308.15 K, x2 = 0.3982 | – | 7.85
308.15 K, x2 = 0.4916 | – | 6.26
308.15 K, x2 = 0.4933 | 5.9 | –
308.15 K, x2 = 0.5989 | – | 4.49
308.15 K, x2 = 0.6991 | – | 3.4
308.15 K, x2 = 0.8029 | – | 2.03
308.15 K, x2 = 0.8991 | – | 1.477
318.15 K, x2 = 0 | – | 19.17
318.15 K, x2 = 0.0985 | – | 14.01
318.15 K, x2 = 0.2191 | – | 9.9
318.15 K, x2 = 0.3053 | – | 8.23
318.15 K, x2 = 0.3982 | – | 6.33
318.15 K, x2 = 0.4916 | – | 5.09
318.15 K, x2 = 0.4933 | 6.95 | –
318.15 K, x2 = 0.5989 | – | 3.68
318.15 K, x2 = 0.6991 | – | 2.81
318.15 K, x2 = 0.8029 | – | 1.696
318.15 K, x2 = 0.8991 | – | 1.2

O [water] + CCn1cc[n+](C)c1.F[B-](F)(F)F
[2], x1 = 1
Conditions | viscosity [mPa·s]
288.15 K | 1.137
298.15 K | 0.89
308.15 K | 0.719
318.15 K | 0.597

CCn1cc[n+](C)c1.F[B-](F)(F)F [1-ethyl-3-methylimidazolium tetrafluoroborate]
[1]
Conditions | electrical conductivity [S/m] | viscosity [mPa·s]
288.15 K | – | 55.5
298.15 K | 1.63 | 36.9
308.15 K | – | 26
318.15 K | – | 19.17
